The experiment has as its target T1, C5a anaphylatoxin chemotactic receptor 1 (Homo sapiens, UniProt P21730).
T1 sequence (P21730 whole entry): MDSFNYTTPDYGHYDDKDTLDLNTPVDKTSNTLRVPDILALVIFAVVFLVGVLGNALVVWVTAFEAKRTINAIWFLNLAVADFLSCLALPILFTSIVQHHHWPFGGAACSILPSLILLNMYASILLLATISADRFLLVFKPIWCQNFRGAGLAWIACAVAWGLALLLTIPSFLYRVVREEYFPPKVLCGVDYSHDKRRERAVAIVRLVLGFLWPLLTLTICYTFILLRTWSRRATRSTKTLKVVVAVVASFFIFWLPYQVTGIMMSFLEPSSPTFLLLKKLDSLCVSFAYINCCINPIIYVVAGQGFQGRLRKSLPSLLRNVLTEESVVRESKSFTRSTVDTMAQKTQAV
The experiment can be described thus: FLIPR Assay: Compounds were tested for their ability to inhibit C5a-mediated calcium mobilization using a stable cell line over expressing the human C5aR & the Galpha 15 protein on the FLIPR (Fluorescent Imaging Plate Reader) Tetra system. Cells were maintained in culture media containing DMEM (Dulbecco's Modified Eagle Medium) with 4.5 g/L glucose, 10% fetal bovine serum, 100 U/mL, 1x non-essential amino acid, and 250 ug/mL G418 (Geneticin). Prior to testing of compounds, cells were plated at 10,000 cells/well in clear bottom 384-well black plate, and incubated overnight at 37C. with 5% CO2. On the day of experiment, culture media was removed, and replaced with assay buffer HBSS (Hanks' Balanced Salt Solution) with 20 mM HEPES (4-(2-hydroxyethyl)-1-piperazineethanesulfonic acid) and 0.1% BSA (bovine serum albumin) BSA containing calcium 5 dye (Molecular Devices) and 2.5 mM probenecid. After 1 hour incubation at 37C., 5% CO2 for 60 min, cells were pre-incubated with compounds for 30 minutes. Type of experiment: functional. (In general: Calcium flux is commonly read through the fluorescence of an indicator in the cells.)

The IC50 is the concentration needed to halve the response being measured. Consider `CO[C@H]1CCN(c2nc(-c3c(Cl)cnc4[nH]ccc34)nc3c2CN(c2cc(C4CC4)ccc2C)CC3)CC1(C)C`, for which the IC50 amounted to 47 nM.
Turning to `CO[C@@H]1CCN(c2nc(-c3c(C)ccc4[nH]nc(C)c34)nc3c2CN(c2c(Cl)c(C(C)C)nn2C)CC3)[C@H](C)C1`, the IC50 was found to be 2 nM.

The record behind these values is ChEMBL document CHEMBL3639060, “Tetrahydropyrido-pyridine and tetrahydropyrido-pyrimidine compounds and use thereof as C5a receptor modulators” (2014).
